The source of these data is patent publication US9145411B2, “Substituted amino-pyrimidine derivatives” (Asana Biosciences, LLC, priority 2012, dated 2015).

Structures are written as SMILES.

One assay deals with PI3 kinase isoform γ (Homo sapiens, UniProt P48736). In words: PI3 Kinase TR-FRET assay, isoform γ. The class given is biochemical. To be noted: read-out: inhibition of PI3 kinase isoform γ, IC50. Here is the method:
(§1) The ability of compounds of the invention to inhibit PI3K activity was determined in a homogeneous TR-FRET assay using a PI3K assay kit (Millipore, USA; cat #33-016) according to manufacturer's instructions. PI3-Kinases (isoforms α, β, γ and δ) catalyze the phosphorylation of phosphatidylinositol, PIP2 to PIP3 in the presence of ATP and Mg^2+. The PIP3 product is detected by displacement of biotin-PIP3 from an energy transfer complex consisting of Europium labeled anti-GST monoclonal antibody, a GST-tagged PH domain, biotinylated PIP3 and Streptavidin-APC. Excitation of Europium in the complex results in an energy transfer to the APC and a fluorescence emission at 665 nm. The PIP3 product displaces biotin-PIP3 from the complex resulting in a loss of energy transfer and thus a decrease in signal.
(§2) To test for the ability of compounds to inhibit the activity of PI3Kα (wild-type), exemplary compounds of formula (I) were dissolved in DMSO and directly distributed into 384-well plates at a volume of 0.5 μL. 14.5 μL of P110/P85α/PIP2 mixture in buffer (obtained from the Millipore kit) containing MgCl2 (40 mM) and DTT (5 mM) was added to compound wells and incubated for 60 minutes at room temperature. P110/P85α was expressed in SF9 insect cells and purified nickel column extraction. Five ng of wild-type P110/P85α was used in the assay. The kinase reaction was started by the addition of ATP. The assay concentrations of both PIP2 and ATP were 10 μM. The reaction mixture was incubated for 30 minutes at room temperature and was terminated by the addition of stop mix and detection mix. Fluorescence was measured at 615 and 665 nm upon excitation at 340 nm in a Victor™ V5 fluorometer (Perkin Elmer, USA). The fluorescence emission ratio at 665 to 615 nm, proportional to the kinase activity, was plotted against the compound concentration to generate dose-response curves and IC50 values were determined using GraphPad Prism® 5 software.
(§3) The activity of PI3 kinase isoforms β, γ and δ were assayed in a similar manner to the assay protocol described above for PI3Kα, by substituting the appropriate p110/p85 isoform for the p110α/p85α. Compounds of formula (I) caused inhibition of PI3 kinase isoforms β, γ and δ as determined by these assays. For example, the compounds of Examples 3 and 21 each caused inhibition of PI3 kinase isoform β with IC50 values<500 nM. The compounds of Examples 3, 7, 21, 47, 48 and 49 each caused inhibition of PI3 kinase isoform γ with IC50 values<500 nM. The compounds of Example 3, 7, 47, 48, and 49 caused inhibition of PI3 kinase isoform δ with IC50 values<1 μM.
A general note: In TR-FRET formats the signal depends on donor and acceptor labels being close together.

The subject of a further assay is PC3 cells. In words: XTT assay for cell viability, PC3 cells. To be noted: Homo sapiens, PC-3; PC3 cell proliferation, 96 hours. The format is cell-based. In a few lines:
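Log-phase PC3 cells (1000/well) were seeded for 24 h, then exposed to serially diluted compounds (DMSO dilutions) for 96 h. Viability was measured by XTT dye conversion at 37 °C, with absorbance read at 465 nm. EC50 was obtained from a sigmoidal dose-response fit.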

The next assay deals with T1, mTOR kinase (Homo sapiens, UniProt P42345).
T1 construct: purchased Millipore, USA
In words: mTOR kinase TR-FRET assay. The format is biochemical. As to conditions: 20 μM ATP. In a few lines:
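Test compounds were pre-incubated 60 min with mTOR (5 ng), then ULight-p70 S6K (Thr389) peptide (50 nM) and ATP (20 μM) were added in HEPES 50 mM pH 7.5, EGTA, MnCl2 3 mM. After 60 min at room temperature, EDTA stop and Eu-anti-phospho antibody TR-FRET (665/615 nm) gave IC50 from sigmoidal variable-slope fits.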

Another assay has as its target PI3 kinase isoform δ (Homo sapiens, UniProt O00329). As to the kind of experiment: PI3 Kinase TR-FRET assay, isoform δ. As to conditions: read-out: inhibition of PI3 kinase isoform δ, IC50. The format is biochemical. The procedure:
as §1, §2, §3

A further assay has as its target T2, PI3Kα (wild-type) (Homo sapiens, UniProt P42336).
T2 construct: made in house; host or cells: SF9 insect cells
As to the kind of experiment: PI3 Kinase TR-FRET assay, PI3Kα (wild-type). The class given is biochemical. As to conditions: wild-type P110/P85α, 10 μM ATP. In outline: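 Sf9-expressed, Ni-purified p110/p85α (5 ng) with PIP2 was preincubated with compound for 60 min at room temperature in buffer with 40 mM MgCl2 and 5 mM DTT. The reaction ran 30 min at room temperature with 10 μM PIP2 and 10 μM ATP. The TR-FRET 665/615 nm ratio was used to derive IC50 from dose-response curves.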

Another assay deals with PI3Kα mutation H1047R (Homo sapiens, UniProt P42336, H1047R). In words: PI3 Kinase TR-FRET assay, PI3Kα mutation H1047R. The class given is biochemical. As to conditions: read-out: inhibition of PI3Kα mutation H1047R, IC50. Here is the method:
as §1, §2
(§4) The activity of PI3Kα mutations H1047R and E545K were assayed in a similar manner to the assay protocol described above for PI3Kα (wild type). The compounds of formula (I) caused inhibition of PI3Kα mutations H1047R (a mutation associated with breast and gastric cancers) and E545K (a mutation associated with colorectal tumors, glioblastomas, gastric cancers, breast cancers, and lung cancers). For example, each of the compounds of Example 3, 7, 21, 47, 48 and 49 caused inhibition of each of the PI3Kα mutations H1047R and E545K with IC50 values<50 nM.

Another assay deals with pAkt(T308). As to the kind of experiment: In-cell Western assay, pAkt(T308), PC3 cells. The format is cell-based. To be noted: Homo sapiens, PC-3, 2 hours incubation. In outline:
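PC3 cells, 22,000/well in Ham's F12K, exposed to serial compound dilutions for 2 h, then fixed and immunostained for each phospho-epitope. Eu-labelled secondary read by time-resolved fluorescence (ex 340, em 615 nm), corrected by Hoechst 33258 signal (ex 355, em 460 nm). IC50 from sigmoidal dose-response fit.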

The target of a further assay is PI3Kα mutation E545K (Homo sapiens, UniProt P42336, E545K). As to the kind of experiment: PI3 Kinase TR-FRET assay, PI3Kα mutation E545K. As to conditions: read-out: inhibition of PI3Kα mutation E545K, IC50. The class given is biochemical. The procedure:
as §1, §2, §4

For a further assay, the system named is pAkt(S473). As to the kind of experiment: In-cell Western assay, pAkt(S473), PC3 cells. The class given is cell-based. As to conditions: Homo sapiens, PC-3, 2 hours incubation. The procedure:
(§5) Cells from human prostate cancer cell line PC3 (American Type Culture Collection (ATCC), Manassas, Va. 20108 USA) were seeded at an optimal density of 22,000 cell/well in 96-well plates containing Ham's F12K medium (90 μL) and incubated overnight. The compound dilutions were carried out in 100% DMSO followed by a dilution in the medium. Test compounds were added in serial dilutions to the wells and incubated for 2 hours. The cells were washed and fixed with 4% paraformaldehyde. After incubation at room temperature for 1 hour in the dark, blocking was done for 2 hours at room temperature. Primary antibodies for pAkt(S473) ([…] phosphorylated at serine 473), pAkt(T308) (Akt phosphorylated at threonine 308) and for pS6RP (S235/236) (phosphorylated at serine 235/236) (commercially available from Cell Signaling Technology®, whose protocol was followed for the in-cell western assay, were diluted to the required concentration and added to the corresponding wells followed by overnight incubation at 4° C. Eu-labeled rabbit (PE) (Perkin-Elmer USA catalog #AD0106) secondary antibody was added and incubated for 2 hours at room temperature. Delfia® enhancement solution (cat #1244-105, Perkin Elmer USA) was subsequently added to the plate before taking the reading at 615 nm with excitation wavelength of 340 nm, after which 0.5 μg/mL of Hoechst® 33258 dye (Catalog #86140-5, Sigma) was added to the plate and fluorescence emission was read at 460 nm with 355 nm excitation, to evaluate the correction factor. IC50 values were calculated using a sigmoidal dose-response curve fit in GraphPad Prism® v5 software.

The subject of a further assay is pS6RP (S235/236). As to the kind of experiment: In-cell Western assay, pS6RP (S235/236), PC3 cells. To be noted: Homo sapiens, PC-3, 2 hours incubation. The format is cell-based. The procedure:
as §5

A further assay concerns the target PI3 kinase isoform β (Homo sapiens, UniProt P42338). As to the kind of experiment: PI3 Kinase TR-FRET assay, isoform β. The class given is biochemical. To be noted: read-out: inhibition of PI3 kinase isoform β, IC50. The procedure: as §1
To test for the ability of compounds to inhibit the activity of PI3Kα (wild-type), exemplary compounds of formula (I) were dissolved in DMSO and directly distributed into 384-well plates at a volume of 0.5 μL. […] Fluorescence was measured at 615 and 665 nm upon excitation at 340 nm in a Victor™ V5 fluorometer (Perkin Elmer, USA). The fluorescence emission ratio at 665 to 615 nm, proportional to the kinase activity, was plotted against the compound concentration to generate dose-response curves and IC50 values were determined using GraphPad Prism® 5 software. […]

Another assay concerns U87MG tumor cells. In words: In vivo efficacy study (tumor growth suppression), U87MG xenograft. To be noted: U87MG xenograft mice, after 12 to 14 days of dosing, 50 mg/kg qd po.

Sequence of PI3Kα mutation H1047R (P42336 whole entry H1047R): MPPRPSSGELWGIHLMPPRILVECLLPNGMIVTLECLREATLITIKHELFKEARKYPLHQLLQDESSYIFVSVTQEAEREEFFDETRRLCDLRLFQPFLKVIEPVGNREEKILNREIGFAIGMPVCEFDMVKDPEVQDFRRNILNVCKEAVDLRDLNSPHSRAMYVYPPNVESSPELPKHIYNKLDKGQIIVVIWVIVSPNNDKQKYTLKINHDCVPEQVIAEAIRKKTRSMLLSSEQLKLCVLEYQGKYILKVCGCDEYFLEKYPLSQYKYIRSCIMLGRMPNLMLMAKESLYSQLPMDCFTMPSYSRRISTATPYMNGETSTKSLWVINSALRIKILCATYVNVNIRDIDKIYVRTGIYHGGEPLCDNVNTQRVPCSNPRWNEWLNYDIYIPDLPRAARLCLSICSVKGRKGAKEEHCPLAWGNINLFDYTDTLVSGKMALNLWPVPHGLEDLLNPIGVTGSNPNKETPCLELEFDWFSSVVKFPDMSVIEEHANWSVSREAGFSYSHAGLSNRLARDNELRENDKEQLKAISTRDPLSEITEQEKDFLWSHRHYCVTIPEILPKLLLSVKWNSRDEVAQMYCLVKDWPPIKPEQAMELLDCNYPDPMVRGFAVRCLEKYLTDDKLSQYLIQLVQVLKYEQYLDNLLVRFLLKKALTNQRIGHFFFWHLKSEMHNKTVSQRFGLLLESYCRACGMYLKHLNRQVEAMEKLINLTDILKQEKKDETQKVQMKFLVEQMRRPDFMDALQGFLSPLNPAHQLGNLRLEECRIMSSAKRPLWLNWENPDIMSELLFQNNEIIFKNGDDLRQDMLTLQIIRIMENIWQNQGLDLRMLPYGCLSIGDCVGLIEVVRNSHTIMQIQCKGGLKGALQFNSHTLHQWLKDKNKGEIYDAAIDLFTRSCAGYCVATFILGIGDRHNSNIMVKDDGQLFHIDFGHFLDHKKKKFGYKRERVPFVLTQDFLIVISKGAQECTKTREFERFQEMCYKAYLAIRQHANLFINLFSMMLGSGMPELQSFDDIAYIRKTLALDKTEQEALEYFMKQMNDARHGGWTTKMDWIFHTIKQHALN
Sequence of PI3Kα mutation H1047R (P27986 whole entry partner): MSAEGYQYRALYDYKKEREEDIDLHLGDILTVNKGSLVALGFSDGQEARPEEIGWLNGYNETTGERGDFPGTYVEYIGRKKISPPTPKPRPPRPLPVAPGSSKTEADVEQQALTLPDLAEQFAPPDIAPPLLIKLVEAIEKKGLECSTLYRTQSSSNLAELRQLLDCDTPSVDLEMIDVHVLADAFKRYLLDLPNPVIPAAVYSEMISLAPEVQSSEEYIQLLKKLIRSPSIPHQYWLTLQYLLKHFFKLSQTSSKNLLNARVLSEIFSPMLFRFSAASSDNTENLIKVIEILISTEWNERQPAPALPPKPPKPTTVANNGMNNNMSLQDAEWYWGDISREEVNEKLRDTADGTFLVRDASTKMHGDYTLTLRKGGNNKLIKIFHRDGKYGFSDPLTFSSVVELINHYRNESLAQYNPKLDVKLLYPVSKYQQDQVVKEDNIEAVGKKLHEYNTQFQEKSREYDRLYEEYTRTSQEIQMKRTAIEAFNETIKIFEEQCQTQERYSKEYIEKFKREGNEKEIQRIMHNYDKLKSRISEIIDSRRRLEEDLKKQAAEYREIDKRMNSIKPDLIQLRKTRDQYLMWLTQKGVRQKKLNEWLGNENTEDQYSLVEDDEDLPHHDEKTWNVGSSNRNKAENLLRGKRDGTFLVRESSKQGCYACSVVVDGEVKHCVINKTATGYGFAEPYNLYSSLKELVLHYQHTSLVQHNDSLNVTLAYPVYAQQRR
Sequence of PI3 kinase isoform δ (O00329 whole entry, canonical isoform): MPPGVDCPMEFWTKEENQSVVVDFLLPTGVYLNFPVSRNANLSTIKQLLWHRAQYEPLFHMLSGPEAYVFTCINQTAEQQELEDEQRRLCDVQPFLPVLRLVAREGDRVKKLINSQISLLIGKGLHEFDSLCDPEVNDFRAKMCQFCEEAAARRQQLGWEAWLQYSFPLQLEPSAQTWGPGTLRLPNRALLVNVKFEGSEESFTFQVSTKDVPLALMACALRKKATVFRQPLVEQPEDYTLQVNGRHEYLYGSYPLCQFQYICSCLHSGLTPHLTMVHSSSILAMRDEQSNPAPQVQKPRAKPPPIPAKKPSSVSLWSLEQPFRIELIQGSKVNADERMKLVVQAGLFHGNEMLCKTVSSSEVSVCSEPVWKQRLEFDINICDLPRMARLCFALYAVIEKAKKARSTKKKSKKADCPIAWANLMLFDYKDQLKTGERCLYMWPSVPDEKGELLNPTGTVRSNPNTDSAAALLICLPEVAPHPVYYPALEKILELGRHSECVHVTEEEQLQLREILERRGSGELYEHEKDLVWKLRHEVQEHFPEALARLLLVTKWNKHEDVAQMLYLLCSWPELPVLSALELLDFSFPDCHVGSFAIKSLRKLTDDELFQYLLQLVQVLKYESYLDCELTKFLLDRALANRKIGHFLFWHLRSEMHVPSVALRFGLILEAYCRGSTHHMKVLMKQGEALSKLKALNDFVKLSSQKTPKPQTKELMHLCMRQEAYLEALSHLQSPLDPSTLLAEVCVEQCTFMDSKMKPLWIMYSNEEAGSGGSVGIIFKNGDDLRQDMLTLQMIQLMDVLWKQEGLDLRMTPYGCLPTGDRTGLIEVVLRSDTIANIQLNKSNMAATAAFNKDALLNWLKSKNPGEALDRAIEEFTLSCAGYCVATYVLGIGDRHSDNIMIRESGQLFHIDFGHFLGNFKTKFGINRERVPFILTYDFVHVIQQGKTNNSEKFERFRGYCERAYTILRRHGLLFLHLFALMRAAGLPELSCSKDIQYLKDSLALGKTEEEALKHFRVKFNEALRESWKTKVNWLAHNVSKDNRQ
Sequence of PI3 kinase isoform δ (P27986 whole entry partner, canonical isoform): as the sequence (P27986 whole entry partner) above
Sequence of PI3Kα mutation E545K (P42336 whole entry E545K): as the sequence (P42336 whole entry H1047R) above, with E545K, R1047H counted along it
Sequence of PI3Kα mutation E545K (P27986 whole entry partner): as the sequence (P27986 whole entry partner) above
Sequence of PI3 kinase isoform γ (P48736 whole entry, the tested form may be a part, canonical isoform): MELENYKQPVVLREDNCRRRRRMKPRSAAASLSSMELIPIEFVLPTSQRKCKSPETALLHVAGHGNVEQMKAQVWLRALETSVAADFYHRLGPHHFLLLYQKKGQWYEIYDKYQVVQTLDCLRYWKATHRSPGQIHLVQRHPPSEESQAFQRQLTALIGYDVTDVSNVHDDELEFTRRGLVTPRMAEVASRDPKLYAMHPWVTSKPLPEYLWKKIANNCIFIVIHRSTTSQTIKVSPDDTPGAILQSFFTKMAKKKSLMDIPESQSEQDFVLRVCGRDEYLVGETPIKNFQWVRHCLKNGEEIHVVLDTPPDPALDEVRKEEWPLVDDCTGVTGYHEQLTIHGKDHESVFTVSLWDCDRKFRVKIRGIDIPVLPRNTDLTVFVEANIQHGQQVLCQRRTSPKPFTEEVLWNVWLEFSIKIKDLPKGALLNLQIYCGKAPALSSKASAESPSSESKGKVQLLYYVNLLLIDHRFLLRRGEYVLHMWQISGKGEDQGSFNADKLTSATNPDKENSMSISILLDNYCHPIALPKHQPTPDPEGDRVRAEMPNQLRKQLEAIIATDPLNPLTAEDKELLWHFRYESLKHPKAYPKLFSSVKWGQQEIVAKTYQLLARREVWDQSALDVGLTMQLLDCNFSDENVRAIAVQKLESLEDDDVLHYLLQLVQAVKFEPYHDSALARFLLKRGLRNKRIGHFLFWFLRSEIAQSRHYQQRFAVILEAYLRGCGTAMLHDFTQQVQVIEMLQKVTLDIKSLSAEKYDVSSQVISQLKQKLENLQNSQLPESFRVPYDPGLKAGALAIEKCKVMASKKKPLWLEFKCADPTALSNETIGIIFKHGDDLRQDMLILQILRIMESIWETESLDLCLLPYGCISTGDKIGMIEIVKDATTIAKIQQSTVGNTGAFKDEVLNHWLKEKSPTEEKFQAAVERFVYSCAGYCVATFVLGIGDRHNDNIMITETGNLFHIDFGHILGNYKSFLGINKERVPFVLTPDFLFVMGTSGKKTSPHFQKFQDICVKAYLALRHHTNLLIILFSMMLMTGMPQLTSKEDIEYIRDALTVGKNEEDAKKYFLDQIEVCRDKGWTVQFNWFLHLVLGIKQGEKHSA
T2 sequence (P42336 whole entry, species assumed): as the sequence (P42336 whole entry H1047R) above, with R1047H counted along it
T2 sequence (P27986 whole entry partner, species assumed): as the sequence (P27986 whole entry partner) above

For `C[C@H](O)C(=O)Nc1cccc(-c2cnc3c(N4CCOCC4)nc(-c4cnc(N)nc4)nc3c2)c1` [Example 47, (S)-N-(3-(2-(2-amino-pyrimidin-5-yl)-4-morpholinopyrido[3,2-d]pyrimidin-7-yl)phenyl)-2-hydroxypropanamide], the IC50 was below 500 nM at PI3 kinase isoform γ; 100 to 500 nM in the assay with PC3 cells; below 50 nM against mTOR kinase; below 1000 nM at PI3 kinase isoform δ; below 50 nM against PI3Kα (wild-type); below 50 nM on PI3Kα mutation H1047R. Besides, the half-maximal inhibitory concentration (IC50) was below 100 nM in the assay on pAkt(T308) and below 50 nM on PI3Kα mutation E545K.
As to `CC(C)(C#N)C(=O)Nc1cccc(-c2cnc3c(N4CCOCC4)nc(-c4cnc(N)nc4)nc3c2)c1` [Example 49, N-(3-(2-(2-amino-pyrimidin-5-yl)-4-morpholinopyrido[3,2-d]pyrimidin-7-yl)phenyl)-2-cyano-2-methylpropanamide], the 50% inhibitory concentration (IC50) at PI3 kinase isoform γ is below 500 nM; in the assay with PC3 cells, below 100 nM; against mTOR kinase it was below 50 nM; on PI3 kinase isoform δ, below 1000 nM; with pAkt(S473), below 100 nM; at PI3Kα (wild-type), below 50 nM. For the same compound, the IC50 at PI3Kα mutation H1047R was below 50 nM; in the assay on pAkt(T308), 100 to 500 nM; at PI3Kα mutation E545K, below 50 nM; in the assay on pS6RP (S235/236) it was below 100 nM.
As to `CC(C)(O)C(=O)Nc1cccc(-c2cnc3c(N4CCOCC4)nc(-c4cnc(N)nc4)nc3c2)c1` [Example 48, N-(3-(2-(2-amino-pyrimidin-5-yl)-4-morpholinopyrido[3,2-d]pyrimidin-7-yl)phenyl)-2-hydroxy-2-methylpropanamide], the IC50 was below 500 nM on PI3 kinase isoform γ; 100 to 500 nM with PC3 cells; below 50 nM on mTOR kinase; below 1000 nM at PI3 kinase isoform δ; below 50 nM against PI3Kα (wild-type); below 50 nM on PI3Kα mutation H1047R. In addition, the IC50 in the assay on pAkt(T308) is 100 to 500 nM; at PI3Kα mutation E545K, below 50 nM.
With `CS(=O)(=O)Nc1cccc(-c2cnc3c(N4CCOCC4)nc(-c4cnc(N)nc4)nc3c2)c1` [Example 21, N-(3-(2-(2-amino-pyrimidin-5-yl)-4-morpholinopyrido[3,2-d]-pyrimidin-7-yl)phenyl)-methanesulfonamide], the half-inhibitory concentration (IC50) on PI3 kinase isoform γ is below 500 nM; with PC3 cells, below 100 nM; against mTOR kinase, below 50 nM; in the assay with pAkt(S473) it was 100 to 500 nM; on PI3Kα (wild-type), below 50 nM; at PI3Kα mutation H1047R, below 50 nM. The concentration for half-maximal inhibition (IC50) is 100 to 500 nM with pAkt(T308), below 500 nM at PI3 kinase isoform β and below 50 nM on PI3Kα mutation E545K.
With `CC(=O)OC(C)OC(=O)N(C(C)=O)c1cccc(-c2cnc3c(N4CCOCC4)nc(-c4cnc(N)nc4)nc3c2)c1` (stereo not drawn) [Example 120, 1-((acetyl(3-(2-(2-amino-pyrimidin-5-yl)-4-morpholinopyrido[3,2-d]-pyrimidin-7-yl)-phenyl)carbamoyl)oxy) ethyl acetate], in the assay with U87MG tumor cells, the “tumor growth inhibition relative to vehicle control group” value is listed as “more than 70%”.

The IC50 is the concentration needed to halve the response being measured.
